From patent publication US6156724A, “Uses of didemnins as immunomodulating agents” (priority 1998, dated 2000)
Numbered stars: 1 amine (or outer) side, 2 acyl side, 3 side chain; on linkers, the order of the positions; unused ones are H or OH. Bridge positions count the residues as written; N and C are the ends. Square brackets hold non-standard residues; d marks the D form. Peptide text beside a SMILES is read from it. * marks the point of attachment. X2 = CC[C@H](C)[C@@H](N[*:1])[C@@H](O)CC(=O)O[C@@H](C(=O)[C@H](C)C(=O)[*:2])C(C)C; X1 = CC[C@H](C)[C@@H](N[*:1])[C@@H](O)CC(=O)O[C@H](C(=O)[C@H](C)C(=O)[*:2])C(C)C; X3 = CC[C@H](C)[C@H](N[*:1])[C@@H](O)CC(=O)O[C@H](C(=O)[C@H](C)C(=O)[*:2])C(C)C; X6 = CC[C@H](C)[C@@H](N[*:1])[C@H](O)CC(=O)O[C@H](C(=O)[C@H](C)C(=O)[*:2])C(C)C; NMeY = CN[C@@H](Cc1ccc(O)cc1)C(=O)O; aThr = C[C@H](O)[C@H](N)C(=O)O; NMeL = CN[C@@H](CC(C)C)C(=O)O; dNMeL = CN[C@H](CC(C)C)C(=O)O; Octanoyl = CCCCCCCC(=O)*; Cbz = O=C(OCc1ccccc1)*; For = O=C*

What was measured:
[1] = test system: murine splenocytes (Balb/c and C57B1/6); test: Two-way mixed lymphocyte reaction (MLR) assay; conditions: Balb/c + C57B1/6 splenocytes, 96 h, [3H]thymidine; for IC50: read-out: two-way mixed lymphocyte reaction (MLR) suppression MLR, IC50;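 on all read-outs here: proliferation read as tritiated thymidine incorporation into newly made DNA after an overnight pulse, expressed as percent of control activity, IC50 interpolated per compound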
[2] = test system: Balb/c splenocytes (resting lymphocytes); test: Lymphocyte viability (LcV) assay; type: cell-based, murine; conditions: unstimulated Balb/c splenocytes, MTT
Experimental: Forty two (42) didemnin compounds (see Table 1) were evaluated for cytotoxicity to one of the lymphocyte populations in the MLR (i.e., Balb/c splenocytes). The purpose of the lymphocyte viability assay (LcV) is to measure metabolic activity in lymphocytes after they have been exposed to the compounds for the duration of an under conditions equivalent to the MLR. The inverse of the data yields cytotoxicity information about the compounds on murine lymphocytes. The rationale of using resting cells, in this case unstimulated lymphocytes, to measure cytotoxicity has a strategic importance. In the MLR the heterogenous cell populations are predominantly resting cells when the assay begins.
Test compounds were prepared in two sets as described above. Splenocytes were prepared as described previously from one murine strain (Balb/c), and a volume of 200 μL of the cell suspension was added to one set of test compounds and control wells.
Assay plates were incubated as in the MLR and then pulsed overnight 75 μL per well MTT-thiazolyl blue solution (150 μg). The plates were decanted and the resulting insoluble formazan crystals were dissolved in 200 μL of isopropyl alcohol. Absorbance at 570 nm was measured.
The LcV data were calculated as a percentage of basal metabolic activity, or percent viability, relative to BALB/c control, and an LC50 value was interpolated for each test compound.

[3] = test system: concanavalin A-induced lymphoblasts (Con A splenocytes); test: Lymphoblast viability (LbV) assay; conditions: Con A-stimulated splenocytes (lymphoblasts), MTT

Compound	two-way mixed lymphocyte reaction (MLR) suppression MLR, IC50 [1] [µg/mL]	IC50 [1] [nM]	cytoxicity to lymphocytes LcV, LC50 [2] [nM]	cytoxicity to lymphocytes LcV, LC50 ([2]; highest concentration 10 μg/mL) [µg/mL]	cytotoxicity to lymphocytes LbV, LC50 [3] [nM]
[Anhydro1st^2 ][Phth-Ala^9 ]DB [Compound 9]	0.0003	0.25	> 8200	> 10	1.9
CC[C@H](C)[C@H]1NC(=O)[C@@H](NC(=O)[C@@H](CC(C)C)N(C)C(=O)[C@@H]2CCCN2C(C)=O)[C@@H](C)OC(=O)[C@H](Cc2ccc(OC)cc2)N(C)C(=O)[C@@H]2CCCN2C(=O)[C@H](CC(C)C)NC(=O)[C@@H](C)C(=O)[C@H](C(C)C)OC(=O)C[C@@H]1O [Compound 31, [Acetyl^9]Didemnin B] (Ac-P[dNMeL]T[X1]LP[NMeY](Me); ester 3-C)	0.00022	0.21	2800	3.10	0.16
CC[C@H](C)[C@@H]1NC(=O)[C@@H](NC(=O)[C@H](CC(C)C)N(C)C=O)[C@H](C)OC(=O)[C@H](Cc2ccc(OC)cc2)N(C)C(=O)[C@@H]2CCCN2C(=O)[C@H](CC(C)C)NC(=O)[C@@H](C)C(=O)[C@H](C(C)C)OC(=O)C[C@@H]1O [Compound 26, Didemnin G] (For-[NMeL][aThr][X3]LP[NMeY](Me); ester 2-C)	0.0007	0.72	> 10000	> 10	1.1
CC[C@H](C)[C@H]1NC(=O)[C@@H](NC(=O)[C@@H](CC(C)C)N(C)C(=O)OCc2ccccc2)[C@@H](C)OC(=O)[C@H](Cc2ccc(OC)cc2)N(C)C(=O)[C@@H]2CCCN2C(=O)[C@H](CC(C)C)NC(=O)[C@@H](C)C(=O)[C@H](C(C)C)OC(=O)C[C@H]1O [Compound 4, Z-[(3R,4R,5S)Ist^2]Didemnin A] (Cbz-[dNMeL]T[X6]LP[NMeY](Me); ester 2-C)	0.019	18	9000	9.70	220
CC[C@H](C)[C@@H](NC(=O)[C@@H](NC(=O)[C@@H](CC(C)C)NC)[C@@H](C)O)[C@@H](O)CC(=O)O[C@H](C(=O)[C@H](C)C(=O)N[C@@H](CC(C)C)C(=O)N1CCC[C@H]1C(=O)N(C)[C@@H](Cc1ccc(OC)cc1)C(=O)O)C(C)C [Compound 17, Acyclodidemnin A] (H-[dNMeL]T[X1]LP[NMeY](Me)-OH)	0.00054	0.57	> 10400	> 10	240
CC[C@H](C)[C@H]1NC(=O)[C@@H](NC(=O)[C@@H](CC(C)C)NC)[C@@H](C)OC(=O)[C@H](Cc2ccc(OC)cc2)N(C)C(=O)[C@@H]2CCCN2C(=O)[C@H](CC(C)C)NC(=O)[C@@H](C)C(=O)[C@@H](C(C)C)OC(=O)C[C@@H]1O [Compound 12, Epididemnin A1] (H-[dNMeL]T[X2]LP[NMeY](Me); ester 2-C)	0.081	86	> 10600	> 10	51
CC[C@H](C)[C@H]1NC(=O)[C@@H](NC(=O)[C@@H](CC(C)C)N(C)C(=O)OCc2ccccc2)[C@@H](C)OC(=O)[C@H](Cc2ccc(OC)cc2)N(C)C(=O)[C@@H]2CCCN2C(=O)[C@H](CC(C)C)NC(=O)[C@@H](C)C(=O)[C@H](C(C)C)OC(=O)C[C@@H]1O [Compound 3, Z-Didemnin A] (Cbz-[dNMeL]T[X1]LP[NMeY](Me); ester 2-C)	0.0011	1.02	7500	8.10	1.9
CCCCCCCC(=O)N(C)[C@H](CC(C)C)C(=O)N[C@@H]1C(=O)N[C@H]([C@@H](C)CC)[C@@H](O)CC(=O)O[C@@H](C(C)C)C(=O)[C@H](C)C(=O)N[C@@H](CC(C)C)C(=O)N2CCC[C@H]2C(=O)N(C)[C@@H](Cc2ccc(OC)cc2)C(=O)O[C@@H]1C [Compound 23, N^α -Octanoyldidemnin A] (Octanoyl-[dNMeL]T[X1]LP[NMeY](Me); ester 2-C)	0.0055	5.1	> 9350	> 10	21
